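Test compounds were applied to cells in 96-well plates for 48 hours at 5 doses. At the GI50, growth is halved.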 Activity calls are given as the source filed them. No stated cut-off is given here; in the data, active = GI50 up to about 1.1 µM and inactive = higher. Where only a bound is given, the exact number is not on record here.

Among the test systems are A498; ACHN; HCT-15; HOP-62; HT-29; IGROV-1; KM-20L2; LOX IMVI; M14; OVCAR-3; OVCAR-5; OVCAR-8; SF-295; SF-539; SN12C; SR; UACC-257; UO-31; SF-268; OVCAR-4.
Holding throughout (assay): NCI-60 cell line screen, 48 h

Take `Clc1ccc(C[P+]2(c3ccccc3)CCCCC2)cc1.[O-][Cl+3]([O-])([O-])[O-]`: the GI50 is > 100 µM (inactive) with A498; > 100 µM (inactive) with ACHN; greater than 100 µM in the test with HCT-15; > 100 µM (inactive) in the test with HOP-62; 32 µM (inactive) in the test with HT-29; > 100 µM (inactive) with IGROV-1. For the same compound, the GI50 in the test with KM-20L2 was 54.6 µM (inactive); in the test with LOX IMVI, 77.3 µM (inactive); with M14, 53.8 µM (inactive); in the test on OVCAR-3, 44.7 µM (inactive); in the test with OVCAR-5 it was > 100 µM (inactive); with OVCAR-8 it was > 100 µM (inactive). Moreover, the GI50 with SF-295 is > 100 µM (inactive); in the test with SF-539, > 100 µM (inactive); in the test with SN12C it was > 100 µM (inactive); with SR it was 48.6 µM (inactive); in the test on UACC-257, 28.2 µM (inactive); in the test with UO-31 it was > 100 µM (inactive).
Take `C/C(=N\NC(=S)N(C)C)c1ncc[nH]1`: the GI50 in the test on A498 is 3.94 µM (inactive); in the test on ACHN, 2.45 µM (inactive); in the test on HCT-15, 3.77 µM; in the test with HT-29, 5.73 µM (inactive); in the test on IGROV-1, 2.78 µM (inactive); in the test on KM-20L2, 3.57 µM (inactive). Besides, the GI50 in the test with LOX IMVI is 3.08 µM (inactive); with M14, 2.31 µM (inactive); in the test on OVCAR-3, 3.36 µM (inactive); in the test on OVCAR-5, 2.55 µM (inactive); with OVCAR-8, 3.94 µM (inactive); with SF-268 it was 3.56 µM (inactive). Besides, the GI50 in the test with SF-295 was 4.28 µM (inactive); in the test on SF-539 it was 2.77 µM (inactive); with SN12C, 3.95 µM (inactive); in the test on SR, 2.81 µM (inactive); in the test on UACC-257, 2.92 µM (inactive); with UO-31, 2.1 µM (inactive).
Consider `CC1=C(C(=O)Nc2cc(=O)n(C)c(=O)n2C)C(c2ccc([N+](=O)[O-])cc2)C(C(=O)Nc2cc(=O)n(C)c(=O)n2C)=C(C)N1`, for which the GI50 in the test on A498 is > 100 µM (inactive); in the test on ACHN, 68.2 µM (inactive); in the test on HCT-15 it was greater than 100 µM; in the test with HOP-62 it was 18.1 µM (inactive); in the test on HT-29 it was > 100 µM (inactive); in the test on IGROV-1 it was > 100 µM (inactive). For the same compound, the GI50 with KM-20L2 is > 100 µM (inactive); in the test on LOX IMVI, 54.6 µM (inactive); with M14, > 100 µM (inactive); in the test with OVCAR-3, > 100 µM (inactive); with OVCAR-4 it was 31.5 µM (inactive); in the test with OVCAR-5, > 100 µM (inactive). Moreover, the GI50 in the test with OVCAR-8 is 68.1 µM (inactive); in the test on SF-268, > 100 µM (inactive); with SF-295, > 100 µM (inactive); in the test with SF-539, > 100 µM (inactive); with SN12C, > 100 µM (inactive); with UACC-257, 86.7 µM (inactive). For the same compound, the GI50 in the test with UO-31 was 21.8 µM (inactive).
With `CCc1ccc(Cc2ccc(CC)c(NC(=O)C(=O)C3NC(=S)NC3=O)c2CC)c(CC)c1NC(=O)C(=O)C1NC(=S)NC1=O` (configuration not stated), the GI50 in the test with A498 is > 100 µM (inactive); in the test on ACHN, > 100 µM (inactive); in the test on HCT-15, greater than 100 µM; with HOP-62, > 100 µM (inactive); in the test on IGROV-1 it was > 100 µM (inactive); with KM-20L2 it was > 100 µM (inactive). In addition, the GI50 in the test on LOX IMVI, in the test with M14, with OVCAR-3, in the test with OVCAR-4, in the test with OVCAR-5 and in the test on OVCAR-8 was > 100 µM (inactive) throughout. Also, the GI50 is > 100 µM (inactive) in the test on SF-268, > 100 µM (inactive) in the test on SF-539, > 100 µM (inactive) in the test with UACC-257 and 51.8 µM (inactive) in the test with UO-31.
Turning to `CCN(CC)C(=O)c1c(N2CCOCC2)cc(N(CC)CC)oc1=O`, the GI50 was > 100 µM (inactive) with A498; > 100 µM (inactive) in the test on ACHN; greater than 100 µM in the test with HCT-15; > 100 µM (inactive) in the test on HOP-62; > 100 µM (inactive) in the test on HT-29; > 100 µM (inactive) in the test on IGROV-1. In addition, the GI50 with KM-20L2, with LOX IMVI, with M14, in the test with OVCAR-3, with OVCAR-4 and in the test on OVCAR-8 was > 100 µM (inactive) in each case. Also, the GI50 in the test on SF-268, with SF-295, in the test on SF-539, in the test with SN12C, in the test with SR and in the test with UACC-257 was > 100 µM (inactive) throughout. Besides, in the test with UO-31, the GI50 is > 100 µM (inactive).
In the case of `Nc1ccccc1SC(/C=C/NNC1=NN=C(c2ccccc2)C(c2ccccc2)N1)c1ccccc1` (configuration not stated), the GI50 in the test on A498 was 20.4 µM (inactive); in the test on ACHN, 14.9 µM (inactive); with HCT-15, 11.5 µM; in the test with HOP-62, 19.5 µM (inactive); in the test with HT-29, 17.1 µM (inactive); with IGROV-1, 15.4 µM (inactive). Moreover, the GI50 with KM-20L2 is 21 µM (inactive); with LOX IMVI, 12.7 µM (inactive); in the test with M14 it was 12.4 µM (inactive); with OVCAR-3 it was 13 µM (inactive); with OVCAR-4, 14.9 µM (inactive); with OVCAR-5 it was 20.8 µM (inactive). Further, the GI50 with OVCAR-8 is 18.1 µM (inactive); in the test on SF-268, 5.64 µM (inactive); in the test with SF-295, 12.1 µM (inactive); in the test on SF-539 it was 13.2 µM (inactive); in the test on SN12C it was 17 µM (inactive); in the test on UACC-257, 13.5 µM (inactive). For the same compound, in the test with UO-31, the GI50 is 4.45 µM (inactive).
For `CC(=O)CC(=O)Nc1ccccc1C(F)(F)F`, the GI50 is > 100 µM (inactive) in the test on A498; > 100 µM (inactive) in the test on ACHN; greater than 100 µM in the test with HCT-15; > 100 µM (inactive) in the test on HOP-62; > 100 µM (inactive) with IGROV-1; > 100 µM (inactive) in the test on KM-20L2. Moreover, the GI50 in the test on LOX IMVI, in the test with M14, in the test on OVCAR-4, in the test on OVCAR-5, in the test with OVCAR-8 and in the test with SF-268 was > 100 µM (inactive) each time. For the same compound, the GI50 in the test on SF-539, in the test on SN12C and in the test with UO-31 was > 100 µM (inactive) throughout.
Consider `O=C1c2ccccc2S[C@@H](O)[C@@H]2CCCN12`, for which the GI50 was > 100 µM (inactive) with ACHN; greater than 100 µM in the test with HCT-15; > 100 µM (inactive) with HOP-62; 21.9 µM (inactive) in the test on IGROV-1; > 100 µM (inactive) in the test with KM-20L2; > 100 µM (inactive) in the test with LOX IMVI. In addition, the GI50 with M14, in the test with OVCAR-3, in the test with OVCAR-5, in the test on OVCAR-8, with SF-268 and in the test on SF-295 was > 100 µM (inactive) in each case. In addition, the GI50 with SF-539, in the test on SN12C, with SR, in the test on UACC-257 and in the test with UO-31 was > 100 µM (inactive) each time.
For the compound `COC(=O)NN=C1C(C)(C)C(=NNC(=O)OC)C1(C)C`, the GI50 in the test with A498 is > 100 µM (inactive); with ACHN it was > 100 µM (inactive); in the test with HCT-15, greater than 90.6 µM; with HOP-62 it was > 100 µM (inactive); with HT-29 it was > 36.9 µM (inactive); with IGROV-1, > 100 µM (inactive). The GI50 in the test on KM-20L2 is > 100 µM (inactive); in the test on LOX IMVI, > 35.8 µM (inactive); in the test with M14 it was > 100 µM (inactive); with OVCAR-3, > 100 µM (inactive); in the test with OVCAR-4 it was > 100 µM (inactive); in the test with OVCAR-5, > 100 µM (inactive). Also, the GI50 was > 41.2 µM (inactive) in the test on OVCAR-8; > 84.1 µM (inactive) in the test with SF-268; > 100 µM (inactive) in the test on SF-295; > 100 µM (inactive) in the test on SF-539; > 68.2 µM (inactive) in the test on SN12C; > 100 µM (inactive) with UACC-257. Further, the GI50 with UO-31 was > 100 µM (inactive).
Consider `CC1(C)CCC[C@@]2(C)C1C[C@H](O)[C@@]1(C)O[C@@](C)([C@H](O)CO)CCC21` (some centres not stated), for which the GI50 was 20.9 µM (inactive) in the test on A498; 26 µM (inactive) with ACHN; 45.5 µM in the test on HCT-15; 62.7 µM (inactive) with HOP-62; 33 µM (inactive) in the test on HT-29; 28.9 µM (inactive) in the test on IGROV-1. Further, the GI50 in the test on KM-20L2 was 40.5 µM (inactive); with M14 it was 34.6 µM (inactive); in the test on OVCAR-3, 29.8 µM (inactive); in the test with OVCAR-4, 35.7 µM (inactive); in the test on OVCAR-5, 39.8 µM (inactive); with OVCAR-8, 39.3 µM (inactive). Further, the GI50 in the test with SF-268 was 30.4 µM (inactive); in the test on SF-295 it was 35.6 µM (inactive); with SF-539, 37.2 µM (inactive); in the test with SN12C it was 37.2 µM (inactive); in the test on UACC-257 it was 33.5 µM (inactive); in the test on UO-31, 26.1 µM (inactive).
For `Cc1cc(C)cc(-n2c3nc(=O)n(C)c(=O)c-3nc3ccccc32)c1`, the GI50 in the test with A498 is > 100 µM (inactive); in the test on ACHN, 27.4 µM (inactive); with HCT-15, 21 µM; with HOP-62, 45.4 µM (inactive); in the test with HT-29, 10.3 µM (inactive); in the test with IGROV-1 it was 36.1 µM (inactive). The GI50 with KM-20L2 was 19.4 µM (inactive); with LOX IMVI, 29.3 µM (inactive); in the test on M14 it was 27 µM (inactive); with OVCAR-3, 3.34 µM (inactive); in the test with OVCAR-4, 18.5 µM (inactive); with OVCAR-5, 39.5 µM (inactive). The GI50 is 27.6 µM (inactive) in the test with OVCAR-8; 65.6 µM (inactive) with SF-268; 36 µM (inactive) with SF-295; 21.4 µM (inactive) with SF-539; 26.8 µM (inactive) in the test on SN12C; 15.3 µM (inactive) in the test on UACC-257. Moreover, the GI50 in the test on UO-31 was 64.1 µM (inactive).
